Values after ≈ are worked out from the molar mass of the structure shown. Where two headings read alike, the source gives them in different places.
Test: Solubility of cinacalcet in water as a function of pH
Assay type: physicochemical
Method: Calcium receptor-active compounds are known in the art. One example of a calcium receptor-active compound is cinacalcet HCl, which is described, for example, in U.S. Pat. No. 6,001,884. Such calcium receptor-active compounds may be insoluble or sparingly soluble in water, particularly in their non-ionized state. […] However, when the pH is about 1, the solubility decreases to about 0.1 mg/mL. Such limited solubility can reduce the number of formulation and delivery options available for these calcium receptor-active compounds. Limited water solubility can also result in low bioavailability of the compounds.

solubility (aqueous buffer, pH ranges from about 3 to about 5, read-out: solubility): ~1600 µg/mL (≈ 4480 µM)
solubility (pH 1, simulated gastric fluid, pH about 1, read-out: solubility): ~100 µg/mL (≈ 280 µM)
solubility (pH 7, water, neutral pH, read-out: solubility in water): < 1 µg/mL
Compound: C[C@@H](NCCCc1cccc(C(F)(F)F)c1)c1cccc2ccccc12 [cinacalcet, N-(1-(R)-(1-naphthyl)ethyl]-3-[3-(trifluoromethyl)phenyl]-1-aminopropane]

Reference: US7829595B2, “Rapid dissolution formulation of a calcium receptor-active compound” (Amgen Inc., priority 2003, dated 2010)
